The values below are quoted from earlier work in patent publication US20260324642A1, “COMPOSITION, PEST CONTROL PREPARATION, AND PEST CONTROL METHOD” (priority 2023, published 2026).

For this data set the following is noted: known activity, background art.

Turning to `COc1ccc(C(=O)O[C@H]2CC[C@@]3(C)[C@@H]4CC[C@H]5[C@]6(O)C[C@H](O)[C@@]7(O)[C@@H](CN8C[C@@H](C)CC[C@H]8[C@@]7(C)O)[C@]6(O)C[C@@]53O[C@]24O)cc1OC` [Veratridine], the insecticidal activity result is given as “known to have insecticidal activity”.

For `C/C=C(/C)C(=O)O[C@H]1CC[C@@]2(C)[C@@H]3CC[C@H]4[C@]5(O)C[C@H](O)[C@@]6(O)[C@@H](CN7C[C@@H](C)CC[C@H]7[C@@]6(C)O)[C@]5(O)C[C@@]42O[C@]13O` [Cevadine], the insecticidal activity entry is given as “known to have insecticidal activity”.
